# Measured values from ChEMBL document CHEMBL3044552, “Synthesis and biological evaluation of 1-(3-chloro-2-oxo-4-phenylazetidin-1-yl)-3-(2-oxo-2-(10H-phenothiazin-10-yl)ethyl)urea derivatives” (Med Chem Res, 2013).
# Activity calls are given as the source filed them. The calls are words filed in the database; no cut-off is given here.
# Tests used:
# [1] = test system: Aspergillus niger; assay: Antifungal activity against Aspergillus niger after 24 hr by disc diffusion method; type: functional
# [2] = test system: Vibrio cholerae; assay: Antibacterial activity against Vibrio cholerae after 18 hr by serial dilution method; type: functional
# [3] = test system: Staphylococcus epidermidis; assay: Antibacterial activity against Staphylococcus albus after 18 hr by serial dilution method; type: functional
# [4] = test system: Staphylococcus aureus; assay: Antibacterial activity against Staphylococcus aureus after 24 hr by disk diffusion method; type: functional
# [5] = test system: Escherichia coli; assay: Antibacterial activity against Escherichia coli after 18 hr by serial dilution method; type: functional
# [6] = test system: Trichophyton rubrum; assay: Antifungal activity against Trichophyton rubrum after 24 hr by disk diffusion method; type: functional
# [7] = test system: Monascus purpureus; assay: Antifungal activity against Monascus purpureus after 18 hr by serial dilution method; type: functional
# [8] = test system: Vibrio cholerae; assay: Antibacterial activity against Vibrio cholerae after 24 hr by disk diffusion method; type: functional
# [9] = test system: Micrococcus luteus; assay: Antibacterial activity against Micrococcus luteus after 24 hr by disk diffusion method; type: functional
# [10] = test system: Bacillus subtilis; assay: Antibacterial activity against Bacillus subtilis after 24 hr by disk diffusion method; type: functional
# [11] = test system: Micrococcus luteus; assay: Antibacterial activity against Micrococcus luteus after 18 hr by serial dilution method; type: functional
# [12] = test system: Staphylococcus epidermidis; assay: Antibacterial activity against Staphylococcus albus after 24 hr by disk diffusion method; type: functional
# [13] = test system: Staphylococcus aureus; assay: Antibacterial activity against Staphylococcus aureus after 18 hr by serial dilution method; type: functional
# [14] = test system: Candida albicans; assay: Antifungal activity against Candida albicans after 24 hr by disk diffusion method; type: functional
# [15] = test system: Bacillus subtilis; assay: Antibacterial activity against Bacillus subtilis after 18 hr by serial dilution method; type: functional
# [16] = test system: Candida albicans; assay: Antifungal activity against Candida albicans after 18 hr by serial dilution method; type: functional
# [17] = test system: Monascus purpureus; assay: Antifungal activity against Monascus purpureus after 24 hr by disk diffusion method; type: functional
# [18] = test system: Pseudomonas aeruginosa; assay: Antibacterial activity against Pseudomonas aeruginosa after 24 hr by disc diffusion method; type: functional
# [19] = test system: Trichophyton rubrum; assay: Antifungal activity against Trichophyton rubrum after 18 hr by serial dilution method; type: functional
# [20] = test system: Aspergillus niger; assay: Antifungal activity against Aspergillus niger after 18 hr by serial dilution method; type: functional
# [21] = test system: Escherichia coli; assay: Antibacterial activity against Escherichia coli after 24 hr by disc diffusion method; type: functional
# [22] = test system: Salmonella paratyphi; assay: Antibacterial activity against Salmonella enterica subsp. enterica serovar Paratyphi A after 18 hr by serial dilution method; type: functional
# [23] = test system: Salmonella paratyphi; assay: Antibacterial activity against Salmonella enterica subsp. enterica serovar Paratyphi A after 24 hr by disk diffusion method; type: functional
# [24] = test system: Pseudomonas aeruginosa; assay: Antibacterial activity against Pseudomonas aeruginosa after 18 hr by serial dilution method; type: functional
# [25] = Antioxidant activity assessed as reduction of ferric ion after 30 min by spectrophotometric analysis; type: functional
# [26] = test system: Radical scavenging activity; assay: Antioxidant activity assessed as DPPH radical scavenging activity after 30 min by spectrophotometric analysis; type: functional
# [27] = test system: Mycobacterium tuberculosis; assay: Growth inhibition of Mycobacterium tuberculosis H37Rv at 100 ug/ml after 7 days by resazurin microplate assay; type: functional, organism-based
# [28] = test system: Mycobacterium tuberculosis; assay: Growth inhibition of Mycobacterium tuberculosis H37Rv at 10 ug/ml after 7 days by resazurin microplate assay; type: functional, organism-based
# [29] = test system: Mycobacterium tuberculosis; assay: Growth inhibition of Mycobacterium tuberculosis H37Rv at 1 ug/ml after 7 days by resazurin microplate assay; type: functional, organism-based
# [30] = test system: HeLa; assay: Growth inhibition of Homo sapiens (human) HeLa cells at 100 uM after 48 hr by MTT assay; type: functional; conditions: read-out: GI
# [31] = test system: HeLa; assay: Growth inhibition of Homo sapiens (human) HeLa cells at 25 uM after 48 hr by MTT assay; type: functional; conditions: read-out: GI
# [32] = test system: HeLa; assay: Growth inhibition of Homo sapiens (human) HeLa cells at 6.25 uM after 48 hr by MTT assay; type: functional; conditions: read-out: GI
# [33] = test system: HeLa; assay: Growth inhibition of Homo sapiens (human) HeLa cells at 12.5 uM after 48 hr by MTT assay; type: functional; conditions: read-out: GI
# [34] = test system: HeLa; assay: Growth inhibition of Homo sapiens (human) HeLa cells at 50 uM after 48 hr by MTT assay; type: functional; conditions: read-out: GI
# [35] = test system: HeLa; assay: Cytotoxicity against Homo sapiens (human) HeLa cells after 48 hr by MTT assay; type: functional, cell-based
Compound,diameter of the inhibition zone (DIZ) [1] [mm],MIC [2] [µg/mL],MIC [3] [µg/mL],diameter of the inhibition zone (DIZ) [4] [mm],MIC [5] [µg/mL],diameter of the inhibition zone (DIZ) [6] [mm],MIC [7] [µg/mL],diameter of the inhibition zone (DIZ) [8] [mm],diameter of the inhibition zone (DIZ) [9] [mm],diameter of the inhibition zone (DIZ) [10] [mm],MIC [11] [µg/mL],diameter of the inhibition zone (DIZ) [12] [mm],MIC [13] [µg/mL],MIC [15] [µg/mL],MIC [16] [µg/mL],diameter of the inhibition zone (DIZ) [17] [mm],diameter of the inhibition zone (DIZ) [18] [mm],MIC [19] [µg/mL],MIC [20] [µg/mL],MIC [22] [µg/mL],other results
COc1cc(C2C(Cl)C(=O)N2NC(=O)NCC(=O)N2c3ccccc3Sc3ccccc32)ccc1O (configuration not stated),5,125,250,7,125,4,250,10,8,6,250,5,250,250,125,7,10,250,250,125,diameter of the inhibition zone (DIZ) [14]: 10 mm; diameter of the inhibition zone (DIZ) [21]: 10 mm; diameter of the inhibition zone (DIZ) [23]: 10 mm; MIC [24]: 125 µg/mL
O=C(NCC(=O)N1c2ccccc2Sc2ccccc21)NN1C(=O)C(Cl)C1c1ccccc1Cl (configuration not stated),8,250,250,4,250,10,125,6,7,7,250,5,500,250,62.5,10,7,125,125,125,Activity [25]: Active; EC50 [26]: 57 µg/mL; diameter of the inhibition zone (DIZ) [14]: 12 mm; diameter of the inhibition zone (DIZ) [21]: 8 mm; diameter of the inhibition zone (DIZ) [23]: 12 mm; MIC [24]: 250 µg/mL
O=C(NCC(=O)N1c2ccccc2Sc2ccccc21)NN1C(=O)C(Cl)C1c1cccc(Cl)c1 (configuration not stated),7,250,125,7,500,6,250,8,5,11,250,11,250,125,62.5,7,10,250,250,125,growth inhibition (GI) [27]: Active; growth inhibition (GI) [28]: Active; growth inhibition (GI) [29]: inactive; diameter of the inhibition zone (DIZ) [14]: 12 mm; diameter of the inhibition zone (DIZ) [21]: 5 mm; diameter of the inhibition zone (DIZ) [23]: 10 mm; MIC [24]: 125 µg/mL
O=C(O)c1cn(C2CC2)c2cc(N3CCNCC3)c(F)cc2c1=O [CIPROFLOXACIN],,125,62.5,20,62.5,,,15,16,25,125,23,62.5,62.5,,,22,,,125,diameter of the inhibition zone (DIZ) [23]: 18 mm; MIC [24]: 62.5 µg/mL
CO[C@H]1/C=C/O[C@@]2(C)Oc3c(C)c(O)c4c(O)c(c(/C=N/N5CCN(C)CC5)c(O)c4c3C2=O)NC(=O)/C(C)=C\C=C\[C@H](C)[C@H](O)[C@@H](C)[C@@H](O)[C@@H](C)[C@H](OC(C)=O)[C@@H]1C,,,,,,,,,,,,,,,,,,,,,growth inhibition (GI) [28]: Active; growth inhibition (GI) [29]: Active
Clc1ccccc1C(c1ccccc1)(c1ccccc1)n1ccnc1 [CLOTRIMAZOLE],4,,,,,22,62.5,,,,,,,,62.5,20,,62.5,125,,
COc1ccc(C2C(Cl)C(=O)N2NC(=O)NCC(=O)N2c3ccccc3Sc3ccccc32)cc1 (configuration not stated),10,125,62.5,5,125,6,250,9,7,7,250,10,250,250,250,6,7,250,125,125,diameter of the inhibition zone (DIZ) [14]: 7 mm; diameter of the inhibition zone (DIZ) [21]: 8 mm; diameter of the inhibition zone (DIZ) [23]: 8 mm; MIC [24]: 125 µg/mL
FERROUS SULFATE,,,,,,,,,,,,,,,,,,,,,Activity [25]: Active
CN(C)c1ccc(C2C(Cl)C(=O)N2NC(=O)NCC(=O)N2c3ccccc3Sc3ccccc32)cc1 (configuration not stated),8,125,125,8,250,7,250,8,5,8,250,8,125,125,250,7,12,250,125,250,Activity [25]: Active; growth inhibition (GI) [27]: Active; EC50 [26]: 55 µg/mL; growth inhibition (GI) [28]: inactive; growth inhibition (GI) [29]: inactive; diameter of the inhibition zone (DIZ) [14]: 7 mm; diameter of the inhibition zone (DIZ) [21]: 7 mm; diameter of the inhibition zone (DIZ) [23]: 6 mm; MIC [24]: 62.5 µg/mL
O=C(NCC(=O)N1c2ccccc2Sc2ccccc21)NN1C(=O)C(Cl)C1c1ccc(O)cc1 (configuration not stated),8,125,125,9,250,8,500,9,12,10,62.5,13,125,125,62.5,10,18,250,62.5,62.5,inhibition of growth at 100 µM [30]: 53%; inhibition of growth at 25 µM [31]: 19.1%; inhibition of growth at 6.25 µM [32]: 0.123%; inhibition of growth at 12.5 µM [33]: 5.04%; diameter of the inhibition zone (DIZ) [14]: 13 mm; inhibition of growth at 50 µM [34]: 37.4%; IC50 [35]: 84.1 µM; diameter of the inhibition zone (DIZ) [21]: 5 mm; diameter of the inhibition zone (DIZ) [23]: 12 mm; MIC [24]: 62.5 µg/mL
O=C(NCC(=O)N1c2ccccc2Sc2ccccc21)NN1C(=O)C(Cl)C1c1cccc(F)c1 (configuration not stated),7,125,125,7,250,7,125,9,7,11,250,11,250,62.5,125,10,11,125,250,125,Activity [25]: Active; EC50 [26]: 47 µg/mL; diameter of the inhibition zone (DIZ) [14]: 11 mm; diameter of the inhibition zone (DIZ) [21]: 6 mm; diameter of the inhibition zone (DIZ) [23]: 10 mm; MIC [24]: 125 µg/mL
O=C1O[C@H]([C@@H](O)CO)C(O)=C1O [ASCORBIC ACID],,,,,,,,,,,,,,,,,,,,,EC50 [26]: 40 µg/mL
